Converted amounts (≈) assume the structure as drawn. Where two headings read alike, the source gives them in different places.
Key:
E. coli strain DH5α = experiment: Minimal inhibitory concentration (MIC) against E. coli, two fold serial dilutions in 2xYT broth; format: cell-based; details: Escherichia coli, read-out: MIC (E. coli)
Experimental: (§1) Where MIC values are quoted for the compounds of the examples, those results were obtained by the method described in the Biological Example.
(§2) Minimal inhibitory concentrations (MIC) of inhibitors against E. coli strain DH5α (Genotype; F-φ80d/acZΔM 15Δ(lacZYA-argF)U 169 deoR recA1 endA1 hsdR17(rk^−, mk^+)phoA supE44λ^−thi-1 gyrA96 re/A1) obtained from GibcoBRL Life Technologies, or Staphylococcus capitis (American Type Culture Collection number 35661) were determined as follows. Stock solutions of each test compound were prepared by dissolution of the compound in dimethylsulfoxide at 10 mM. For the determination of the minimal inhibitory concentration, two fold serial dilutions were prepared in 2×YT broth (typtone 16 g/l, yeast extract 10 g/l, sodium chloride 5 g/l obtained from BIO 101 Inc, 1070 Joshua Way, Vista, Calif. 92083, USA) to yield 0.05 ml compound-containing medium per well. Inocula were prepared from cultures grown overnight in 2×YT broth at 37° C. Cell densities were adjusted to absorbance at 660 nm (a660)=0.1; the optical density-standardised preparations were diluted 1:1000 in 2×YT broth; and each well inoculated with 0.05 ml of the diluted bacteria. Microtiter plates were incubated at 37° C. for 18 hours in a humidified incubator. The MIC (μM) was recorded as the lowest drug concentration that inhibited visible growth.

[1] = test system: Staphylococcus capitis (American Type Culture Collection number 35661); experiment: Minimal inhibitory concentration (MIC) against Staphylococcus capitis, two fold serial dilutions in 2xYT broth; format: cell-based; details: ATCC35661, Staphylococcus capitis ATCC 35661, 37° C., 18 hours, lowest drug concentration that inhibited visible growth, read-out: MIC (S. capitis)
Experimental: as §1, §2

[2] = E. coli strain DH5α, 2xYT broth, 37° C., 18 hours, lowest drug concentration that inhibited visible growth

SMILES | MIC (E. coli strain DH5α; [2]) [µM] | MIC [1] [µM] | MIC (E. coli strain DH5α; 18 h) [µM]
CCCC[C@H](CN(O)C=O)C(=O)N[C@H](C(=O)c1ccc(F)cc1)C(C)(C)C [Example 1, 2(R)-[(N-Formyl-N-hydroxyamino)-methyl]-hexanoic Acid-(1′(S)-(4-fluorobenzoyl)-2′,2′-dimethylpropyl)amide] | 12.5 (≈ 4.76 µg/mL) | 25 (≈ 9.51 µg/mL) | 
CCCC[C@H](CN(O)C=O)C(=O)N[C@H](C(=O)c1ccc(OC)cc1)C(C)(C)C [Example 2] | 12.5 (≈ 4.91 µg/mL) | 6.25 (≈ 2.45 µg/mL) | 
CCCC[C@H](CN(O)C=O)C(=O)N[C@H](C(=O)c1nccn1C)C(C)(C)C [Example 6, 2(R)-[(N-Formyl-N-hydroxyamino)-methyl]-hexanoic Acid-[2,2-dimethyl-1(S)(1-methyl-1H-imidazole-2-carbonyl)-propyl]-amide] | 25 (≈ 9.16 µg/mL) | 200 (≈ 73.3 µg/mL) | 
CCCC[C@H](CN(O)C=O)C(=O)N[C@H](C(=O)c1ccccn1)C(C)(C)C [Example 7, 2(R)-[(N-Formyl-N-hydroxyamino)-methyl]-hexanoic Acid-[2,2-dimethyl-1(S)-(pyridine-2-carbonyl)-propyl]-amide] | 12.5 (≈ 4.54 µg/mL) | 50 (≈ 18.2 µg/mL) | 
CCCC[C@H](CN(O)C=O)C(=O)N[C@H](C(=O)c1ccc(OC)cc1OC)C(C)(C)C [Example 11, 2(R)-[(N-Formyl-N-hydroxyamino)-methyl]-hexanoic Acid [1′-(2,4-dimethoxy-benzoyl)-2′,2′-dimethylpropyl]-amide] | 25 (≈ 10.6 µg/mL) | 25 (≈ 10.6 µg/mL) | 
CCCC[C@H](CN(O)C=O)C(=O)N[C@H](C(=O)c1ccc(O)cc1)C(C)(C)C [Example 12, 2(R)-[(N-Formyl-N-hydroxyamino)-methyl]-hexanoic Acid [1′(S)-(4-hydroxy-benzoyl)-2′,2′-dimethylpropyl]-amide] | 6.25 (≈ 2.37 µg/mL) | 12 (≈ 4.54 µg/mL) | 
COc1ccc(C(=O)[C@H](NC(=O)[C@@H](CC2CCCC2)CN(O)C=O)C(C)(C)C)cc1 [Example 17, 3-Cyclopentyl-2(S)-[(N-formyl-N-hydroxyamino)-methyl]-N-[1′(R)-(4-methoxybenzoyl)-2′,2′-dimethylpropyl]propionamide] | 100 (≈ 41.9 µg/mL) | 25 (≈ 10.5 µg/mL) | 
CCCC[C@H](CN(O)C=O)C(=O)N[C@H](C(=O)c1ccco1)C(C)(C)C [Example 18, 2(R)-[(N-Formyl-N-hydroxyamino)-methyl]-hexanoic Acid-(1′(S)-(furan-2-carbonyl)-2′,2′-dimethylpropyl)amide] | 12.5 (≈ 4.41 µg/mL) | 12.5 (≈ 4.41 µg/mL) | 
CCCC[C@H](CN(O)C=O)C(=O)N[C@H](C(=O)c1cccn1C)C(C)(C)C [Example 19, 2(R)-[(N-Formyl-N-hydroxyamino)-methyl]-hexanoic Acid-(2′,2′-dimethyl-1′(S)-(1-methyl-1H-pyrrole-2-carbonyl)-propyl)amide] | 12.5 (≈ 4.57 µg/mL) | 12.5 (≈ 4.57 µg/mL) | 
CCCC[C@H](CN(O)C=O)C(=O)N[C@H](C(=O)c1ccc(NC(=O)C(F)(F)F)cc1)C(C)(C)C [Example 21, 2(R)-[(N-Formyl-N-hydroxyamino)-methyl]-hexanoic Acid-(2′,2′-dimethyl-1′(S)-[4-(2,2,2-trifluoroacetylamino)-benzoyl]-propyl)amide] |  | 6.25 (≈ 2.96 µg/mL) | 6.25 (≈ 2.96 µg/mL)
CCCC[C@H](CN(O)C=O)C(=O)N[C@H](C(=O)c1ccc(NC(C)=O)cc1)C(C)(C)C [Example 22, 2(R)-[(N-Formyl-N-hydroxyamino)-methyl]-hexanoic Acid-(1′(S)-(4-acetylaminobenzoyl)-2′,2′-dimethylpropyl)amide] | 12.5 (≈ 5.24 µg/mL) | 3.1 (≈ 1.3 µg/mL) | 
CCCC[C@H](CN(O)C=O)C(=O)N[C@H](C(=O)c1ccc(NS(C)(=O)=O)cc1)C(C)(C)C [Example 23, 2(R)-[(N-Formyl-N-hydroxyamino)-methyl]-hexanoic Acid-(1′(S)-(4-methanesulfonylaminobenzoyl)-2′,2′-dimethylpropyl)amide] | 50 (≈ 22.8 µg/mL) | 3.1 (≈ 1.41 µg/mL) | 
CCCC[C@H](CN(O)C=O)C(=O)N[C@H](C(=O)c1ccc(N2CCOCC2)cc1)C(C)(C)C [Example 24, 2(R)-[(N-Formyl-N-hydroxyamino)-methyl]-hexanoic Acid-(2′,2′-dimethyl-1′(S)-(4-morpholin-4-ylbenzoyl)-propyl)amide] | 6.25 (≈ 2.8 µg/mL) | 3.1 (≈ 1.39 µg/mL) | 
CCCC[C@H](CN(O)C=O)C(=O)N[C@H](C(=O)c1ccc(N2CCN(Cc3ccccc3)CC2)cc1)C(C)(C)C [Example 25, 2(R)-[(N-Formyl-N-hydroxyamino)-methyl]-hexanoic Acid-(1′(S)-[4-(4-benzylpiperazin-1-yl)-benzoyl]-2′,2′-dimethylpropyl)amide] | 50 (≈ 26.8 µg/mL) | 3.1 (≈ 1.66 µg/mL) | 
CCCC[C@H](CN(O)C=O)C(=O)N[C@H](C(=O)c1ccc(N2CCNCC2)cc1)C(C)(C)C [Example 26, 2(R)-[(N-Formyl-N-hydroxyamino)-methyl]-hexanoic Acid-(2′,2′-dimethyl-1′(S)-(4-piperazin-1-yl-benzoyl)-propyl)amide] | 3.1 (≈ 1.38 µg/mL) | 12.5 (≈ 5.58 µg/mL) | 

More lines, in order of falling MIC [1], values ahead:

MIC (E. coli strain DH5α; [2]) [µM] | MIC [1] [µM] | SMILES | MIC (E. coli strain DH5α; 18 h) [µM]
 | 100 (≈ 37.7 µg/mL) | CCCC[C@H](CN(O)C=O)C(=O)N[C@H](C(=O)Cc1ccccn1)C(C)(C)C [Example 15, 2(R)-[(N-Formyl-N-hydroxyamino)-methyl]-hexanoic Acid-(1′(S)-tert-butyl-2′-oxo-3′-pyridin-2-yl-propyl) Amide] | 
50 (≈ 17.7 µg/mL) | 25 (≈ 8.86 µg/mL) | CCCC[C@H](CN(O)C=O)C(=O)N[C@H](C(=O)C1CCCCC1)C(C)C [Example 3, 2(R)-[(N-Formyl-N-hydroxyamino)-methyl]-hexanoic Acid-(1′(S)-cyclohexanecarbonyl-2′-methylpropyl)amide] | 
6.25 (≈ 2.75 µg/mL) | 25 (≈ 11 µg/mL) | CCCC[C@H](CN(O)C=O)C(=O)N[C@H](C(=O)c1ccc(S(C)(=O)=O)cc1)C(C)(C)C [Example 16, 2(R)-[(N-Formyl-N-hydroxyamino)-methyl]-hexanoic Acid [1′(S)-(4-methanesulfonyl-benzoyl)-2′,2′-dimethyl-propyl]amide] | 
6.25 (≈ 2.36 µg/mL) | 12.5 (≈ 4.72 µg/mL) | CCCC[C@H](CN(O)C=O)C(=O)N[C@H](C(=O)c1ccc(N)cc1)C(C)(C)C [Example 20, 2(R)-[(N-Formyl-N-hydroxyamino)-methyl]-hexanoic Acid-(1′(S)-(4-aminobenzoyl)-2′,2′-dimethylpropyl)amide] | 
3.1 (≈ 1.26 µg/mL) | 3.1 (≈ 1.26 µg/mL) | CC(C)(C)[C@H](NC(=O)[C@H](CC1CCCC1)CN(O)C=O)C(=O)c1ccc(F)cc1 [Example 4, 3-Cyclopentyl-2(R)-[(N-formyl-N-hydroxyamino)-methyl]-N-[1′(S)-(4-fluorobenzoyl)-2′,2′-dimethylpropyl]propionamide] | 
3.1 (≈ 1.3 µg/mL) | 1.6 (≈ 0.67 µg/mL) | COc1ccc(C(=O)[C@@H](NC(=O)[C@H](CC2CCCC2)CN(O)C=O)C(C)(C)C)cc1 [Example 5, 3-Cyclopentyl-2(R)-[(N-formyl-N-hydroxyamino)-methyl]-N-[1′(S)-(4-methoxybenzoyl)-2′,2′-dimethylpropyl]propionamide] | 
6.25 (≈ 2.52 µg/mL) | 1.6 (≈ 0.644 µg/mL) | CCCC[C@H](CN(O)C=O)C(=O)N[C@H](C(=O)c1cc2ccccc2o1)C(C)(C)C [Example 8, 2(R)-[(N-Formyl-N-hydroxyamino)-methyl]-hexanoic Acid-(1′(S)-(benzofuran-2-carbonyl)-2′,2′-dimethylpropyl)amide] | 
6.25 (≈ 2.68 µg/mL) | 0.7 (≈ 0.3 µg/mL) | CC(C)(C)[C@H](NC(=O)[C@H](CC1CCCC1)CN(O)C=O)C(=O)c1cc2ccccc2o1 [Example 9, N-[1(S)-(Benzofuran-2-carbonyl)-2,2-dimethylpropyl]-3′-cyclopentyl-2′(R)-[(N-formyl-N-hydroxyamino)-methyl]-propionamide] | 

— US6716878B1, “Antimicrobial agents” (Vernalis (Oxford) Limited, priority 1999, dated 2004)
